These results are taken from patent publication US20210352905A1, “COMPOSITIONS AND METHODS TO DISINFECT, TREAT AND PREVENT MICROBIAL INFECTIONS” (WIAB WATER INNOVATION AB, priority 2020, published 2021).

One series concerns S. aureus biofilms. The conditions noted are these: 1% acetic acid alone, FIG. 2.
The subject of the next series is pre-formed biofilm. The conditions noted are these: Halstead et al, PLOS ONE (2015); cited from earlier work.
The next series has as its system human rhinovirus (HRV). The conditions noted are these: low concentration hypochlorous acid nasal irrigation solution, in vitro, nasal epithelial cells; cited from earlier work.
The subject of another series is avian influenza virus. The following applies: similar formulations, in vitro; cited from earlier work.
For series [1] the following is noted: cited from earlier work.

SMILES strings stand for the structures.

As for `CC(=O)O` [acetic acid], the “effect on the biofilm” value in the series on S. aureus biofilms is “only minor effect”. The “concentrations of acetic acid that eradicated a pre-formed biofilm” value with pre-formed biofilm is listed as 0.10% to 2.5.
Regarding `OCl` [hypochlorous acid], the virus-killing effect result in the series on human rhinovirus (HRV) is listed as “significant virus-killing effect”. Moreover, the “effects against avian influenza virus” value in the series with avian influenza virus is on record as “good effects”. In addition, the pKa result in series [1] is recorded as “about 7”.
